Columns and labels:
[1] = molecular target: T1, NQO1 in 231-NQ+ cell extracts (Homo sapiens, UniProt P15559); assay: Oxygen consumption in S9 cell extracts; type: biochemical; details: in 4 h, 231-NQ+ versus 231-NQ− cell extracts
T1 construct: expressed in transfected cells; host or cells: MDA-MB-231 (231-NQ+), S9 supernatant

[2] = test system: orthotopic lung tumors, *2/*2 or *3/*3; assay: Survival of mice bearing orthotopic lung tumors; type: in vivo; details: *2/*2 or *3/*3 tumors, β-lap-HPβ-CD intravenously, 5 doses every other day
Experimental: FIG. 16 depicts NQO1 levels predict response to NQO1 bioactivatable therapies. In (a) LD50 responses of non-small cell lung cancer (NSCLC) cell lines treated with β-Lap for 2 h and harvester 7 days later. LD50 responses were plotted as a function of NQO1 enzymatic levels. The notations, *1/*1 and *2/*2 represent the NQO1 status of each cell line as homozygous wild type (*1/*1) or homozygous polymorphic (*2/*2) genotypes. Note that all heterozygote cells containing one wild-type allele (*1) are wild-type, phenotypically, for NQO1 expression, such that only homozygous *2/*2 or 3/3 are considered non-responsive to NQO1 bioactivatable drugs. Note the high resistance of H596 and H2862 cell lines to β-lapachone compared to all of the wild-type *1/*1 cells with LD50 values less than 5 μM. Note also that *3/*3 SNPs in NQO1 are far more rare than *2/*2 single point mutations in NQO1. In (b), Kaplan-Meier survival curve of mice bearing orthotopic lung tumors implanted with *1/*1 A549 cells. Mice were treated intravenously (5 doses every other day) with β-lap-HPβ-CD or vehicle alone (HPβ-CD). Similar studies with *2/*2 or *3/*3 tumors were performed and these tumors were non-responsive to β-lapachone or other NQO1 bioactivatable drug therapies.

[3] = test system: PC-3 cells; assay: Intracellular NAD+ and ATP levels; type: cell-based, human; details: β-lap exposure
Experimental: ATP levels were analyzed from whole-cell extracts using CellTiter-Glo Luminescent Cell Viability Assays (Promega, Madison, Wis.) following the manufacture's instructions. Data were graphed as means±SE from at least three independent experiments in triplicates.

[4] = test system: PC-3 cells; assay: Relative DNA cell survival assay, β-lap with or without IR; type: cell-based, human; details: for Equivalent dose of IR / Equivalent dose of β-Lap: Machado's model
Experimental: Relative DNA cell survival assays were assessed after various treatments. Briefly, cells were seeded at 5×10^3 per well in 48-well plates and allowed to attach overnight. […] DNA content was then determined by Hoeschst 33258 dye staining and fluorescence detection using a plate reader (Perkin-Elmer, Boston, Mass.) as described. Relative survival assays after combined treatment were confirmed by colony-forming ability assays as described. Results were reported as means±SE from at least three independent experiments. For relative survival data, different combinations of IR+β-lap exposures were fit with simple multi-target models in SigmaPlot for Windows Version 11.0. For synergy, a statistical definition of synergy (48) was used and calculations were performed by fitting experimental data with the Machado and Robinson model using the R code (47). The equitoxic doses listed in Table 1 were calculated by the parameters of the model of Machado and Robinson obtained in fitting.

[5] = test system: NQO1; assay: NQO1 enzyme assays using β-lapachone or the standard menadione substrates; type: biochemical, human; details: β-lapachone as substrate, HCC44 *1/*2
Experimental: (§1) S9 Supernatants were prepared from cells in mid-log to late log phase growth. […] The cell suspensions were sonicated on ice four times, using 10-s pulses, and then centrifuged at 14,000×g for 20 min. The S9 supernatants were aliquoted into microcentrifuge tubes and stored at −80° C. until used. A 1× protease inhibitor cocktail was added to prevent enzyme activity degradation. […] Menadione was used as the electron acceptor. NADH was used as the electron donor.
(§2) NQO1 activity was measured using NADH (200 μM) as the immediate electron donor and menadione (10 μM) as the intermediate electron acceptor. […] Biochem. Biophys. […] NADH: cytochrome b5 reductase was measured using NADH (200 μM) as the electron donor, and […] was measured using NADPH (200 μM) as electron donor (45) in a Beckman DU 640 spectrophotometer (Beckman Coulter, Fullerton, Calif.). Reactions were carried out at 37° C. and were initiated by the addition of S9 supernatants. Varying amounts of supernatants, from 10 to 40 μL, were used to ensure linearity of rates with protein concentration. […] Results shown are the average enzyme activity for three separate cell extractions±S.D. or both values from duplicate experiments.
(§3) Cell lines, mostly from a 5-panel nonsmall cell lung cancer panel from the UT Southwestern SPORE, were assessed for NQO1 polymorphism status and then monitored for NQO1 enzyme assays using β-lapachone or the standard menadione substrates. […] NQO1*2/*2 and *3/*3 polymorphisms were detected from NQO1 *1/*1 wild-type sequences by PCR-RFLP. Genomic DNA was extracted from the cells using Qiagen spin columns. Using previously described oligonucleotide primers, PCR products underwent gel electrophoresis. Final genotyping was determined based on the size and pattern of separated bands diagnostic for *1/*1 (wild-type), or polymorphic *2/*2 or *3/*3 NQO1 polymorphisms.

[6] = molecular target: T2, NQO1 (Homo sapiens, UniProt P15559, R139W); assay: as above; type: biochemical; details: β-lapachone as substrate
T2 construct: S9 Supernatants were prepared from cells in mid-log to late log phase growth; endogenous in cells; host or cells: cancer cell lines, mostly from a non-small cell lung cancer panel (e.g. Calu-3); S9 supernatants
Experimental: as §1, §2, §3

[7] = test system: PARP1 in 231-NQ+ cells; assay: PAR formation (PARP1 hyperactivation), Western blot; type: cell-based, human; details: after 2 μM β-lap
[8] = test system: NQO1-deficient LNCaP cells; assay: Relative survival assay; type: cell-based, human
Experimental: Relative DNA cell survival assays were assessed after various treatments. […] Cells were then mock-treated or treated with various doses of β-lap (for 2 h) in the presence or absence of dicoumoral as indicated. Drug-free medium was then added and cells allowed to grow for 5-7 days until control cells reached ˜100% confluence. […] Results were reported as means±SE from at least three independent experiments.

T2 sequence (P15559 whole entry R139W): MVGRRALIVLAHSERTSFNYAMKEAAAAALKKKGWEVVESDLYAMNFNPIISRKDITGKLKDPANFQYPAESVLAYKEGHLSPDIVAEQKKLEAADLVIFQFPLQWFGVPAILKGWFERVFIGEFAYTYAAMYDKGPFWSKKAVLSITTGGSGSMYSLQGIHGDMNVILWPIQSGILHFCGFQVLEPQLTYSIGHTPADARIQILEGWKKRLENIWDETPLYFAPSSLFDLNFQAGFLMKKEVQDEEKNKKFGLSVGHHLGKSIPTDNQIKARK
T1 sequence (P15559 whole entry): as the sequence (P15559 whole entry R139W) above, with W139R counted along it

## CC1(C)CCC2=C(O1)c1ccccc1C(=O)C2=O [β-Lap, 3,4-dihydro-2,2-dimethyl-2H-naphtho[1,2-b]pyran-5,6-dione]
[1]
  Increase of O2 consumption: ~40 fold
[2]
  Response of tumors: non-responsive
[3]
  Time to exhaustion of NAD+ and ATP levels: ≤ 120 min
[4]; 4 μM β-lap
  Exposure time sufficient to achieve maximal cytotoxicity: ~120 min
[4]; 1 Gy+1 μM β-lap
  β-lap dose with the same effect as the combination: 4 µM
[4]; IR 0 Gy + β-Lap 1 μM
  Equivalent dose of IR: 0.6 Gy
  Equivalent dose of β-Lap: 1 µM
[4]; IR 0 Gy + β-Lap 2 μM
  Equivalent dose of IR: 1.2 Gy
  Equivalent dose of β-Lap: 2 µM
[4]; IR 0 Gy + β-Lap 3 μM
  Equivalent dose of IR: 1.7 Gy
  Equivalent dose of β-Lap: 3 µM
[4]; IR 1 Gy + β-Lap 1 μM
  Equivalent dose of IR: 1.7 Gy
  Equivalent dose of β-Lap: 4.1 µM
[4]; IR 1 Gy + β-Lap 2 μM
  Equivalent dose of IR: 2.1 Gy
  Equivalent dose of β-Lap: 5.6 µM
[4]; IR 1 Gy + β-Lap 3 μM
  Equivalent dose of IR: 2.7 Gy
  Equivalent dose of β-Lap: 6.8 µM
[4]; IR 2 Gy + β-Lap 1 μM
  Equivalent dose of IR: 2.6 Gy
  Equivalent dose of β-Lap: 7.9 µM
[4]; IR 2 Gy + β-Lap 2 μM
  Equivalent dose of IR: 3.1 Gy
  Equivalent dose of β-Lap: 9.6 µM
[4]; IR 2 Gy + β-Lap 3 μM
  Equivalent dose of IR: 3.6 Gy
  Equivalent dose of β-Lap: 11.5 µM
[4]; IR 3 Gy + β-Lap 1 μM
  Equivalent dose of IR: 3.7 Gy
  Equivalent dose of β-Lap: 12.5 µM
[4]; IR 3 Gy + β-Lap 2 μM
  Equivalent dose of IR: 4.1 Gy
  Equivalent dose of β-Lap: 14.5 µM
[4]; IR 3 Gy + β-Lap 3 μM
  Equivalent dose of IR: 4.6 Gy
  Equivalent dose of β-Lap: 16 µM
[5]
  NQO1 activity, β-Lap: 879 ± 14 nmol/min/µg
[6]; Calu-3/NSCLC *3/*3
  NQO1 activity, β-Lap: 243 ± 2 nmol/min/µg
[6]; H2009/NSCLC *3/*3
  NQO1 activity, β-Lap: 120 ± 3 nmol/min/µg
[6]; HCC1171/NSCLC *3/*3
  NQO1 activity, β-Lap: 369 ± 9 nmol/min/µg
[6]; T47D/BreastCancer *3/*3
  NQO1 activity, β-Lap: 138 ± 3 nmol/min/µg
[7]
  Time of peak PAR formation: 30 min
[8]
  Response to β-lap: not responsive
